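96-well plates; 48 h exposure; 5 concentrations. Endpoints by linear interpolation between flanking doses. Not reached: highest tested concentration assigned. GI50: concentration for 50% inhibition of growth. At the TGI there is no net growth.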
Key:
Test in all cases: inhibition of tumour cell growth, NCI panel, 48 h
SR leukemia = tested on: SR leukemia
IGROV1 ovarian = tested on: IGROV1 ovarian
SN12C renal = tested on: SN12C renal
BT-549 breast = tested on: BT-549 breast
SF-268 CNS = tested on: SF-268 CNS
HCT-116 colon = tested on: HCT-116 colon
NCI-H460 lung = tested on: NCI-H460 lung
NCI-H23 lung = tested on: NCI-H23 lung
KM12 colon = tested on: KM12 colon
ACHN renal = tested on: ACHN renal
CCRF-CEM leukemia = tested on: CCRF-CEM leukemia
SK-MEL-2 melanoma = tested on: SK-MEL-2 melanoma
UACC-257 melanoma = tested on: UACC-257 melanoma
UACC-62 melanoma = tested on: UACC-62 melanoma
COLO 205 colon = tested on: COLO 205 colon
RXF 393 renal = tested on: RXF 393 renal
A498 renal = tested on: A498 renal
SNB-75 CNS = tested on: SNB-75 CNS
TK-10 renal = tested on: TK-10 renal
SK-OV-3 ovarian = tested on: SK-OV-3 ovarian
K-562 leukemia = tested on: K-562 leukemia
SF-539 CNS = tested on: SF-539 CNS
HS 578T breast = tested on: HS 578T breast
HT29 colon = tested on: HT29 colon
HOP-92 NSCLC = tested on: HOP-92 NSCLC
MDA-MB-468 breast = tested on: MDA-MB-468 breast
UO-31 renal = tested on: UO-31 renal
EKVX NSCLC = tested on: EKVX NSCLC
OVCAR-4 ovarian = tested on: OVCAR-4 ovarian
A549 NSCLC = tested on: A549 NSCLC
RPMI-8226 leukemia = tested on: RPMI-8226 leukemia
DU-145 prostate = tested on: DU-145 prostate
SW-620 colon = tested on: SW-620 colon
CAKI-1 renal = tested on: CAKI-1 renal
MOLT-4 leukemia = tested on: MOLT-4 leukemia
OVCAR-5 ovarian = tested on: OVCAR-5 ovarian
NCI-H522 lung = tested on: NCI-H522 lung
PC-3 prostate = tested on: PC-3 prostate
NCI/ADR-RES ovarian = tested on: NCI/ADR-RES ovarian
OVCAR-8 ovarian = tested on: OVCAR-8 ovarian
OVCAR-3 ovarian = tested on: OVCAR-3 ovarian
MDA-MB-435 = tested on: MDA-MB-435
NCI-H226 lung = tested on: NCI-H226 lung
HCC-2998 colon = tested on: HCC-2998 colon
HCT-15 colon = tested on: HCT-15 colon
SK-MEL-28 melanoma = tested on: SK-MEL-28 melanoma
HL-60(TB) leukemia = tested on: HL-60(TB) leukemia
U251 CNS = tested on: U251 CNS
SNB-19 CNS = tested on: SNB-19 CNS
MDA-MB-231 breast = tested on: MDA-MB-231 breast
M14 melanoma = tested on: M14 melanoma
786-0 renal = tested on: 786-0 renal
SF-295 CNS = tested on: SF-295 CNS
MALME-3M melanoma = tested on: MALME-3M melanoma
T-47D breast = tested on: T-47D breast
HOP-62 NSCLC = tested on: HOP-62 NSCLC
LOX IMVI melanoma = tested on: LOX IMVI melanoma
SK-MEL-5 melanoma = tested on: SK-MEL-5 melanoma
MCF7 breast = tested on: MCF7 breast

SMILES: COc1ccc(-c2nc(S(=O)(=O)c3ccccc3)c(S(C)(=O)=O)o2)cc1
- GI50 (SR leukemia): 2.66 µM
- TGI (SR leukemia): 25.6 µM
- GI50 (IGROV1 ovarian): 13.1 µM
- TGI (IGROV1 ovarian): 27.2 µM
- GI50 (SN12C renal): 11.4 µM
- TGI (SN12C renal): 23.5 µM
- GI50 (BT-549 breast): 10.1 µM
- TGI (BT-549 breast): 22.6 µM
- GI50 (SF-268 CNS): 14.4 µM
- TGI (SF-268 CNS): 33.9 µM
- GI50 (HCT-116 colon): 1.99 µM
- TGI (HCT-116 colon): 4.58 µM
- GI50 (NCI-H460 lung): 13.9 µM
- TGI (NCI-H460 lung): 29.7 µM
- GI50 (NCI-H23 lung): 12 µM
- TGI (NCI-H23 lung): 27.2 µM
- GI50 (KM12 colon): 17.6 µM
- TGI (KM12 colon): 35.7 µM
- GI50 (ACHN renal): 1.7 µM
- TGI (ACHN renal): 3.13 µM
- GI50 (CCRF-CEM leukemia): 2.07 µM
- TGI (CCRF-CEM leukemia): 6.22 µM
- GI50 (SK-MEL-2 melanoma): 14.2 µM
- TGI (SK-MEL-2 melanoma): 28 µM
- GI50 (UACC-257 melanoma): 13 µM
- TGI (UACC-257 melanoma): 28 µM
- GI50 (UACC-62 melanoma): 11.2 µM
- TGI (UACC-62 melanoma): 23.2 µM
- GI50 (COLO 205 colon): 2.22 µM
- TGI (COLO 205 colon): 4.9 µM
- GI50 (RXF 393 renal): 2.07 µM
- TGI (RXF 393 renal): 4.09 µM
- GI50 (A498 renal): 15.5 µM
- TGI (A498 renal): 29 µM
- GI50 (SNB-75 CNS): 11.3 µM
- TGI (SNB-75 CNS): 23.7 µM
- GI50 (TK-10 renal): 7.5 µM
- TGI (TK-10 renal): 21 µM
- GI50 (SK-OV-3 ovarian): 21.7 µM
- TGI (SK-OV-3 ovarian): 44.9 µM
- GI50 (K-562 leukemia): 2.77 µM
- TGI (K-562 leukemia): > 100 µM
- GI50 (SF-539 CNS): 3.93 µM
- TGI (SF-539 CNS): 14.6 µM
- GI50 (HS 578T breast): 12.8 µM
- TGI (HS 578T breast): 48.4 µM
- GI50 (HT29 colon): 3.15 µM
- TGI (HT29 colon): 9.31 µM
- GI50 (HOP-92 NSCLC): 7.29 µM
- TGI (HOP-92 NSCLC): 20.8 µM
- GI50 (MDA-MB-468 breast): 2.24 µM
- TGI (MDA-MB-468 breast): 4.41 µM
- GI50 (UO-31 renal): 5.43 µM
- TGI (UO-31 renal): 18.3 µM
- GI50 (EKVX NSCLC): 12.2 µM
- TGI (EKVX NSCLC): 26.6 µM
- GI50 (OVCAR-4 ovarian): 3.44 µM
- TGI (OVCAR-4 ovarian): 15.4 µM
- GI50 (A549 NSCLC): 19.1 µM
- TGI (A549 NSCLC): 42.1 µM
- GI50 (RPMI-8226 leukemia): 3.97 µM
- TGI (RPMI-8226 leukemia): > 100 µM
- GI50 (DU-145 prostate): 6.26 µM
- TGI (DU-145 prostate): 20.4 µM
- GI50 (SW-620 colon): 1.67 µM
- TGI (SW-620 colon): 3.39 µM
- GI50 (CAKI-1 renal): 2.59 µM
- TGI (CAKI-1 renal): 10.9 µM
- GI50 (MOLT-4 leukemia): 3.39 µM
- TGI (MOLT-4 leukemia): 13.2 µM
- GI50 (OVCAR-5 ovarian): 14.4 µM
- TGI (OVCAR-5 ovarian): 27.9 µM
- GI50 (NCI-H522 lung): 1.65 µM
- TGI (NCI-H522 lung): 3.32 µM
- GI50 (PC-3 prostate): 14.1 µM
- TGI (PC-3 prostate): 30 µM
- GI50 (NCI/ADR-RES ovarian): 17 µM
- TGI (NCI/ADR-RES ovarian): 48 µM
- GI50 (OVCAR-8 ovarian): 13.6 µM
- TGI (OVCAR-8 ovarian): 32.1 µM
- GI50 (OVCAR-3 ovarian): 1.74 µM
- TGI (OVCAR-3 ovarian): 3.33 µM
- GI50 (MDA-MB-435): 8.96 µM
- TGI (MDA-MB-435): 21.8 µM
- GI50 (NCI-H226 lung): 18.2 µM
- TGI (NCI-H226 lung): 40.9 µM
- GI50 (HCC-2998 colon): 15 µM
- TGI (HCC-2998 colon): 29 µM
- GI50 (HCT-15 colon): 2.04 µM
- TGI (HCT-15 colon): 4.62 µM
- GI50 (SK-MEL-28 melanoma): 12.5 µM
- TGI (SK-MEL-28 melanoma): 25.2 µM
- GI50 (HL-60(TB) leukemia): 2.38 µM
- TGI (HL-60(TB) leukemia): 20.9 µM
- GI50 (U251 CNS): 17.7 µM
- TGI (U251 CNS): 34.3 µM
- GI50 (SNB-19 CNS): 16.5 µM
- TGI (SNB-19 CNS): 31.8 µM
- GI50 (MDA-MB-231 breast): 3.52 µM
- TGI (MDA-MB-231 breast): 12.2 µM
- GI50 (M14 melanoma): 3.26 µM
- TGI (M14 melanoma): 14.3 µM
- GI50 (786-0 renal): 2.08 µM
- TGI (786-0 renal): 4.98 µM
- GI50 (SF-295 CNS): 15.7 µM
- TGI (SF-295 CNS): 29.6 µM
- GI50 (MALME-3M melanoma): 1.67 µM
- TGI (MALME-3M melanoma): 3.1 µM
- GI50 (T-47D breast): 2.16 µM
- TGI (T-47D breast): 5.03 µM
- GI50 (HOP-62 NSCLC): 18.2 µM
- TGI (HOP-62 NSCLC): 35.2 µM
- GI50 (LOX IMVI melanoma): 1.54 µM
- TGI (LOX IMVI melanoma): 2.92 µM
- GI50 (SK-MEL-5 melanoma): 15.2 µM
- TGI (SK-MEL-5 melanoma): 29.1 µM
- GI50 (MCF7 breast): 2.46 µM
- TGI (MCF7 breast): 8.25 µM
